Test results reported in ChEMBL document CHEMBL4477252, “Optimization of microtubule affinity regulating kinase (MARK) inhibitors with improved physical properties” (Bioorg Med Chem Lett, 2016).
In brackets after ≈: the same amount, converted by molar mass.

What was measured:
[1] = target: MAP/microtubule affinity-regulating kinase 3 (Homo sapiens, UniProt P27448); assay: Inhibition of full-length recombinant human GST-tagged MARK3 expressed in baculovirus expression system using biotinylated-Cdc25C peptide substrate measured after 2 hrs by HTRF assay
[2] = Solubility of the compound at pH 7; type: physicochemical; conditions: buffer
[3] = target: MDR1 (ABCB1, P-glycoprotein) (Homo sapiens, UniProt P08183); assay: Substrate activity at human MDR1 expressed in LLC-PK1 cells assessed as efflux ratio of permeability across basolateral to apical over apical to basolateral side at 5 uM; type: ADME, cell-based
[4] = Clearance in Sprague-Dawley rat at 1 mL/kg, iv administered through catheter measured after 24 hrs by LC-MS/MS analysis; type: ADME, organism-based; conditions: in vivo

MAP/microtubule affinity-regulating kinase 3, sequence (P27448 whole entry): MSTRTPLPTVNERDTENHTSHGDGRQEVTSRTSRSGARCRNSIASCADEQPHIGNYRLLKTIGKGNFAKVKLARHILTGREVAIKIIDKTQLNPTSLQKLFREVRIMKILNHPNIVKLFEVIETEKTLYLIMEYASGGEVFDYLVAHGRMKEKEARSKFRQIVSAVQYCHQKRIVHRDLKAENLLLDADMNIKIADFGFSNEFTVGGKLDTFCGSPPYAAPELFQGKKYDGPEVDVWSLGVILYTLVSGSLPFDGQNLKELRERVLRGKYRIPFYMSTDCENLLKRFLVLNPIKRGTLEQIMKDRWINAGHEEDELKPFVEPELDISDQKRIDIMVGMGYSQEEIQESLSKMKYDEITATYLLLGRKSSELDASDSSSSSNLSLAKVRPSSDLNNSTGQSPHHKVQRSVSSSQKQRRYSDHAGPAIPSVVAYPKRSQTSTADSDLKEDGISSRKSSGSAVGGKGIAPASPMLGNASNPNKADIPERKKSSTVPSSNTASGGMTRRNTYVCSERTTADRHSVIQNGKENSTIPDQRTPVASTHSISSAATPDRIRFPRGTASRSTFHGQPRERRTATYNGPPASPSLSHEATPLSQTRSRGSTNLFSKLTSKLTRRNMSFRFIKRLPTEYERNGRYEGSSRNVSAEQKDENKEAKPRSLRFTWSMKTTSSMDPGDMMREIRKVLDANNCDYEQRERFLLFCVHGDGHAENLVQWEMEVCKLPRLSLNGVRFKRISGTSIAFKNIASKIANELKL
MDR1 (ABCB1, P-glycoprotein), sequence (P08183 whole entry): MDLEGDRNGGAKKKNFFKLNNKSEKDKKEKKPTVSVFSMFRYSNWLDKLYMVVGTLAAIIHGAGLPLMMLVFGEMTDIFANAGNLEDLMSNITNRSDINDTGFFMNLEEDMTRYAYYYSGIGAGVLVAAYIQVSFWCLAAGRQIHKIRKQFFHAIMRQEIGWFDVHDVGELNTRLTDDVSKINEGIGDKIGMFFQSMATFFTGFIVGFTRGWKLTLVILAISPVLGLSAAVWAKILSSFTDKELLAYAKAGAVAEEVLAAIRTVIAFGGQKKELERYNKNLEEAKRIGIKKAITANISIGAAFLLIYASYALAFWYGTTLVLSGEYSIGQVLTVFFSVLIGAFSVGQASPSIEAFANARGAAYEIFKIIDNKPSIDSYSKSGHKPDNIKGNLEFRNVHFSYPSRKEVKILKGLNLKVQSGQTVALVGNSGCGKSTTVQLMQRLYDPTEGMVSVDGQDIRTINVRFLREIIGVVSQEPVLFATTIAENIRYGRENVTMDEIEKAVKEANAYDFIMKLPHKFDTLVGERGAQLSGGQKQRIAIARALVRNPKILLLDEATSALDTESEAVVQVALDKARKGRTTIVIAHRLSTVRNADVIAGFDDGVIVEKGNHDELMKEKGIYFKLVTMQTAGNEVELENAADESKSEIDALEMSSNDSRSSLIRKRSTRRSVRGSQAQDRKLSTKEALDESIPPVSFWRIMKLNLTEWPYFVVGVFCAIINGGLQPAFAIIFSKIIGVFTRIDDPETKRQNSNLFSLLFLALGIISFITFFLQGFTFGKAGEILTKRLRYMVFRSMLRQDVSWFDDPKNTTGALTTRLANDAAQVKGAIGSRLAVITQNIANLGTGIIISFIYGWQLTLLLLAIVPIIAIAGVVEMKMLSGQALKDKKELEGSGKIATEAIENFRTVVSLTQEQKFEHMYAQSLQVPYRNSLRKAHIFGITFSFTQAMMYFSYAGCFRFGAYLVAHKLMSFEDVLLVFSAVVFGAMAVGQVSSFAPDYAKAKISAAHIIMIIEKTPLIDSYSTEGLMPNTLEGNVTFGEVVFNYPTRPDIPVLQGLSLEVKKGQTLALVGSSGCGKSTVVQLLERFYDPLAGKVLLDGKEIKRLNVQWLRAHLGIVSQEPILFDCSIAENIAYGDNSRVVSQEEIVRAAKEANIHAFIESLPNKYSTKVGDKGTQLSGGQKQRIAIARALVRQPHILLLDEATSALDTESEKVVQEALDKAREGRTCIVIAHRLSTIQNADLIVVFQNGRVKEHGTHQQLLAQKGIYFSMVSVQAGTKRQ

| Structure (SMILES) | IC50 [1] | solubility [2] | efflux ratio at 5 µM [3] | clearance [4] |
| --- | --- | --- | --- | --- |
| O=C(NCC(F)(F)F)c1cc(-c2cnn3cc(-c4cn[nH]c4)cnc23)cs1 | 99 nM | – | – | – |
| Cn1cnc(-c2cnc3c(-c4csc(C(=O)NCC(F)(F)F)c4)cnn3c2)c1 | 13 nM | – | – | – |
| O=C(NCC(F)(F)F)c1cc(-c2cnn3cc(-c4cccnc4)cnc23)cs1 | 70 nM | – | – | – |
| CCNC(=O)c1cc(-c2cnn3cc(-c4cnn(C)c4)cnc23)cs1 | 129 nM | – | – | – |
| Cc1sc(C(=O)N[C@H]2CCCC(F)(F)[C@H]2N)cc1-c1cnn2cc(-c3cnn(C)c3)cnc12 | 130 nM | – | – | – |
| Cn1cc(-c2cnc3c(-c4csc(C(=O)NCCC(N)C(F)F)c4)cnn3c2)cn1 (stereo not drawn) | 15 nM | – | 11.5 | 16.7 mL/min/kg |
| Cn1cc(-c2cnc3c(-c4csc(C(=O)NCCC(N)CF)c4)cnn3c2)cn1 (stereo not drawn) | 22 nM | – | 16.7 | – |
| Cn1cc(-c2cnc3c(-c4csc(C(=O)N[C@@H]5CCCC[C@H]5O)c4)cnn3c2)cn1 (mixture of isomers) | 24 nM | 6 µM | – | – |
| Cn1cc(-c2cnc3c(-c4csc(C(=O)N[C@@H]5CCC[C@H]5O)c4)cnn3c2)cn1 (racemic) | 10 nM | – | – | – |
| Cn1cc(-c2cnc3c(-c4csc(C(=O)N[C@@H]5CCC[C@@H]5O)c4)cnn3c2)cn1 (racemic) | 43 nM | – | – | – |

Continued, values first:

| IC50 [1] | solubility [2] | efflux ratio at 5 µM [3] | clearance [4] | Structure (SMILES) |
| --- | --- | --- | --- | --- |
| 2.4 nM | 200 µM (≈ 78.3 µg/mL) | 10 | – | Cc1sc(C(=O)N[C@@H]2[C@H](N)CCCC2(F)F)cc1-c1cnn2cccnc12 |
| < 0.25 nM | 31 µM (≈ 14.6 µg/mL) | – | – | Cc1sc(C(=O)N[C@@H]2[C@H](N)CCCC2(F)F)cc1-c1cnn2cc(-c3cnn(C)c3)cnc12 |
| 10 nM | – | 4.8 | 14 mL/min/kg | Cn1cc(-c2cnc3c(-c4csc(C(=O)NCCC(N)C(F)(F)F)c4)cnn3c2)cn1 (stereo not drawn) |
| 9 nM | – | – | – | Cn1cc(-c2cnc3c(-c4csc(C(=O)NC(CO)C5CC5)c4)cnn3c2)cn1 (stereo not drawn) |
| 5 nM | – | – | – | COCCOc1ccc(-c2cnc3c(-c4csc(C(=O)NCC(F)(F)F)c4)cnn3c2)cc1 |
| 2 nM | 69 µM (≈ 28.1 µg/mL) | – | – | Cn1cc(-c2cnc3c(-c4csc(C(=O)N[C@@H]5CCC[C@@H]5N)c4)cnn3c2)cn1 (racemic) |
| 1 nM | 193 µM (≈ 81.4 µg/mL) | – | – | Cn1cc(-c2cnc3c(-c4csc(C(=O)N[C@@H]5CCCC[C@H]5N)c4)cnn3c2)cn1 (racemic) |
| 1.3 nM | 192 µM (≈ 83.6 µg/mL) | – | – | Cc1sc(C(=O)N[C@@H]2CCCC[C@@H]2N)cc1-c1cnn2cc(-c3cnn(C)c3)cnc12 (racemic) |
| 3 nM | 203 µM (≈ 82.7 µg/mL) | – | – | Cn1cc(-c2cnc3c(-c4csc(C(=O)N[C@@H]5CCC[C@H]5N)c4)cnn3c2)cn1 (racemic) |
| 9 nM | – | – | – | Cn1cc(-c2cnc3c(-c4csc(C(=O)N[C@@H]5CCCC[C@@H]5O)c4)cnn3c2)cn1 (racemic) |
